Test results reported in patent publication US5177082A, “Huperzines and analogs” (priority 1990, dated 1993).
Like-named read-outs stand apart in the source and are kept apart here.

Columns and labels:
[1] = Plasma protein binding by equilibrium dialysis; type: in vitro ADME; conditions: mouse, plasma of normal mice
Text: Using equilibrium dialysis, it could be shown that the protein binding of ^3 H-Huperzine A in the plasma of normal mice was 17.2±4.1%.

[2] = in vivo; conditions: rat, iv; for k el / Vd / half-life: rat blood
[3] = Tissue distribution of 3H-Huperzine A radioactivity, iv; type: in vivo, rat
Experimental: After giving 250 μCi/kg by iv injections of ^3 H-Huperzine A to the rats, they were sacrificed at different times by bloodletting and the radioactivity contents of the organs were measured.

[4] = iv 375 μCi/kg, rat blood
[5] = Excretion of 3H-Huperzine A after a single dose; type: in vivo
[6] = target: true cholinesterase (Rattus norvegicus, UniProt P37136)
true cholinesterase, sequence (P37136-2 with tags, fused parts or gaps limits assumed): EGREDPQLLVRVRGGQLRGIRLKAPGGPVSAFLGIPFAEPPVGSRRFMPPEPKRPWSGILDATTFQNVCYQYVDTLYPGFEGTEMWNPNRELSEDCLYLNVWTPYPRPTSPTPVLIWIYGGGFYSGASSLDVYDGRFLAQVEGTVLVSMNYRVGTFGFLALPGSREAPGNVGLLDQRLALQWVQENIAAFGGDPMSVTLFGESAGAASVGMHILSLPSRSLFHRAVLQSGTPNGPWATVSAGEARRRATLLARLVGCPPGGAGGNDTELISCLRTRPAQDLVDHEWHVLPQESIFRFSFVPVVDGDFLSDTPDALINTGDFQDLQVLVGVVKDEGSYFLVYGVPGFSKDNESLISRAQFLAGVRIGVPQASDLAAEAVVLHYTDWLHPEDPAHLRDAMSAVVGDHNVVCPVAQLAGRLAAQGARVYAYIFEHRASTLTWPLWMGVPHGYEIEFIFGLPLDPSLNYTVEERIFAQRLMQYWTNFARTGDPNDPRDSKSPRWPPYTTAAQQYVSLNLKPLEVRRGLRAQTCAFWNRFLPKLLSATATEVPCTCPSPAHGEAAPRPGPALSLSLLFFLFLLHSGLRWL

[7] = seven days after a single dose, 10080 min

Which results are given for `C/C=C1\[C@H]2C=C(C)C[C@]1(N)c1ccc(=O)[nH]c1C2` [3H-Huperzine A]?
fraction unbound [1]: 0.828; clearance [2]: 21.2 mL/min/kg; k el ([2]; K10, iv 375 μCi/kg): 0.00034 s⁻¹; Vd ([2]; Vc, iv 375 μCi/kg): 1.04 L/kg; Vd ([2]; Vd, iv 375 μCi/kg): 3.66 L/kg; k el ([2]; phase rate constant β, iv 375 μCi/kg): 9.67e-05 s⁻¹; half-life ([2]; t1/2α, iv 375 μCi/kg): 0.09 h; half-life ([2]; t1/2β, iv 375 μCi/kg): 1.99 h; radioactivity contents of the organs ([3]; 15 minutes after 250 μCi/kg iv): the kidney and liver had the highest contents, the lungs, spleen and heart had less and the fat and brain had the least; radioactivity in every organ examined ([3]; after twenty-four hours): only a minute quantity of radioactivity; brain distribution / blood-brain barrier ([3]; rat, in vivo): can pass the blood-brain barrier; radioactivity contents of the organs ([3]; twelve hours after 250 μCi/kg iv): the radioactivity in each tissue was close to zero; radioactivity contents of the organs ([3]; two hours after 250 μCi/kg iv): the radioactivity in the other tissues was markedly lower while that in the brain rose slightly; time of peak radioactivity in blood (ig 375 μCi/kg, fasted 14 hours): 45 to 60 min; radioactivity in the blood (seven hours after ig): still relatively high; radioactivity in the blood (twenty minutes after ig): had risen noticeably; K12 [4]: 0.0778; K21 [4]: 0.0366; phase rate constant α [4]: 0.129 min⁻¹; eliminated in the urine [5, 7]: 86.1%; eliminated through feces [5, 7]: 5.5%; excreted drug appearing within twenty-four hours (urine) ([5]; within twenty-four hours, 1440 min): 84.9%

With `C[N+](C)(C)CCO.[Cl-]` [choline chloride] as the compound, how does the “inhibition vs time response” value [6] read?
Its value is “The same response was noted”.
